The values below are quoted from earlier work in patent publication US20130190270A1, “Method for Improving Vein Performance in Bypass Surgery” (priority 2012, published 2013).

The subject of data set [1] is atherosclerosis. The following applies: mice.
Data set [2] relates to atherosclerosis. The following applies: humans.
In data set [3] the test system is atherosclerosis. To be noted: guinea pigs.
In another data set the test system is circulating sPLA2-IIA. The following applies: patients who underwent CABG.

Where two headings read alike, the source gives them in different places.

`CCc1c(C(=O)C(N)=O)c2c(OCC(=O)O)cccc2n1Cc1ccccc1`: the effect on atherosclerosis entry in the data set with atherosclerosis [1], in the data set on atherosclerosis [2] and in the data set with atherosclerosis [3] was “can reduce atherosclerosis” each time.

As for heparin, the “effect on circulating sPLA2-IIA levels” value in the data set with circulating sPLA2-IIA is listed as “induce increased circulating sPLA2-IIA levels”.
